Columns and labels:
[1] = following multiple administrations of tigecycline; cited from earlier work
[2] = LC/MS detection of tigecycline metabolites in CD-1 mouse serum and urine after intravenous tigecycline; settings: mouse, in vivo, iv, 5 mg/kg
Procedure: Fifteen male CD-1 mice, with an average weight of 31.3 g at the time of dosing, were used. Animals were given food and water ad libitum. Mice in the 0.5 and 2 hour blood collection groups were housed in standard cages, while those in the 4 hour blood collection group were housed in metabolism cages for the collection of urine. Mice were dosed by the Bioresources Department at Wyeth Research, Collegeville, Pa.
For mice and rabbits, the intravenous dosing solutions was prepared by dissolving 50 mg of tigecycline in 5.0 mL of 0.9% sterile saline solution to make a working stock solution. The working stock solution was diluted with 0.9% sterile saline solution to 0.5 mg/mL for mice and 4 mg/mL for rabbits. The mouse dose (5 mg/kg, 10 mL/kg) was administered as a bolus injection via the tail vein. The rabbit dose (4 mg/kg, 1 mL/kg) was administered as a bolus injection via the marginal vein of the ear.
For mice (n=5/time point), blood (approximately 0.7 mL) was collected by cardiac puncture at 0.5, 2 and 4 hours following administration of tigecycline. For rabbits, blood (approximately 7 mL) was collected via the ear vein at 0.5, 2 and 6 hours following the tigecycline dose. Serum was separated following clot formation at room temperature and centrifugation for 15 minutes at 4° C. and 3000 rpm. The serum was transferred to a fresh tube and was stored at approximately −70° C. until analysis as described below under “Serum Sample Preparation for LC/MS Analysis. In addition, urine was collected from mice in the 4 hour blood collection group and was stored at approximately −70° C. until analysis, as described below under “Urine Sample Preparation for LC/MS Analysis.”
Mouse urine was thawed and an aliquot (1 mL) transferred to a fresh tube. The sample was centrifuged at 14,000 rpm and room temperature for 10 minutes using a Model 5415C Eppendorf centrifuge (Brinkmann Instruments, Westbury, N.Y.) to remove any particulates. The sample was then transferred to a fresh tube and was analyzed by LC/MS, as described below under “Liquid Chromatography/Mass Spectrometry Analysis.”.
Mouse and rabbit serum samples were pooled at each collection time and analyzed for tigecycline, its epimer, tigecycline glucuronide (M7 and its epimer M6), 9-aminominocycline (M3) and N-acetyl-9-aminominocycline (M9 and its epimer M8). Aliquots of serum (500 μL) were transferred to new tubes and deuterated tigecycline (30 ng/mL final concentration) was added as an internal standard (quantitative analysis only). EDTA (40 μL of 0.5 M EDTA) was added to each sample and the samples vortex mixed. Acetonitrile (500 μL) was added to each sample, samples were vortex mixed and denatured protein separated by centrifugation at 14,000 rpm and room temperature for 10 minutes using a Model 5415C Eppendorf centrifuge (Brinkmann Instruments). The supernatant was transferred to a fresh tube and the solvent evaporated under a stream of nitrogen using a Turbovap Model LV evaporator (Caliper Life Sciences, Hopkinton, Mass.).
The HPLC system used for mass spectrometric analysis was a Waters Alliance Model 2695 HPLC system (Waters Corp., Milford, Mass.). It was equipped with a built-in autosampler and a Model 996 diode array UV detector. The UV detector was set to monitor 210-400 nm. Separations for metabolite characterization were accomplished on a Phenomenex Luna C18(2) column (150×2.1 mm, 5 μm) (Phenomenex, Torrance, Calif.) equipped with a Keystone Uniguard C18 guard column (10×2.1 mm) (Thermo Electron Corp., Bellefonte, Pa.). The column temperature was 25° C. The flow rate was 0.2 mL/min. Mobile phase A was 10 mM ammonium acetate in water and mobile phase B was acetonitrile.

[3] = Tigecycline metabolites identified in CD-1 mouse serum and urine and rabbit serum samples (LC/MS); assay type: in vivo; settings: in vivo, iv
Procedure: The column temperature was 25° C. The flow rate was 0.2 mL/min. […] Gradient 1 was used for metabolite identification (qualitative analysis).
LC/MS analysis was conducted on extracts of serum and from CD-1 mice and rabbits, and on urine from CD-1 mice. The mass spectral data for tigecycline and its metabolites are discussed below.

SMILES: CC(=O)Nc1cc(N(C)C)c2c(c1O)C(=O)C1=C(O)C3(O)C(=O)C(C(N)=O)=C(O)C(N(C)C)C3CC1C2 (stereo not drawn) [Metabolite M9, N-acetyl-9-aminominocycline]
- concentrations previously reported in human serum [1]: 3 to 15 ng/mL
- observed in mouse urine by LC/MS [2]: No M9 was observed
- Species and matrix in which identified [3]: R-S

Reference: patent US7534766B2, “Glucuronide metabolites and epimers thereof of tigecycline” (Wyeth, priority 2004, dated 2009)
